Series [1] has as its target T1, RIPK1 (Homo sapiens, UniProt Q13546).
T1 sequence (Q13546 1-671): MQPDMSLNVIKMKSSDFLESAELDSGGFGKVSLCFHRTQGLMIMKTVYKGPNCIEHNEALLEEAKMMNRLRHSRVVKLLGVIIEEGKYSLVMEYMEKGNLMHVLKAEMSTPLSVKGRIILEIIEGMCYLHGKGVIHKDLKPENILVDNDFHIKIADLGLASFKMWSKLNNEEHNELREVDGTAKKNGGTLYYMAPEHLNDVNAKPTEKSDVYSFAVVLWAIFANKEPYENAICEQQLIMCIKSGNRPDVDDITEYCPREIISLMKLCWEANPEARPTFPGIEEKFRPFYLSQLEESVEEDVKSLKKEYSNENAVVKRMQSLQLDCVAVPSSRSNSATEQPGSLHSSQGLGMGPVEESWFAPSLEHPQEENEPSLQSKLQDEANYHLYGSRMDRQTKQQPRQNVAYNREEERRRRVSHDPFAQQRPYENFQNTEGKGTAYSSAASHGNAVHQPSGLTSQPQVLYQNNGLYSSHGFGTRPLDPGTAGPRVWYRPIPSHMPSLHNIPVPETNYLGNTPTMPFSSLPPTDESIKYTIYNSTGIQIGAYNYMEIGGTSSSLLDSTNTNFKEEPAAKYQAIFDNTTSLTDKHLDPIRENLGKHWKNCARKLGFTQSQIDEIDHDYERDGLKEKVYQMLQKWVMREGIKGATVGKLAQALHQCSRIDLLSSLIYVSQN
Description: RIPK1 activity inhibition test (NANOSYN). Format: biochemical. To be noted: 12 concentrations, threefold dilution, 1% DMSO. On the procedure:
The test compounds were dissolved in DMSO, with the highest concentration being […]. Subsequently, the concentrations were serially diluted threefold, with the DMSO concentration in the test medium maintained at 1%. IC50 values were calculated from data generated prom 12 tested concentrations.

For series [2], the system named is Jurkat FADD (−/−) Cells. Briefly: TNF-α induced necroptosis of Jurkat FADD-deficient cells (CellTiter-Glo cell survival). Format: cell-based, human. To be noted: Homo sapiens; TNF-α induced necroptosis, Jurkat FADD-deficient cells, 13 hours, CellTiter-Glo; read-out: IC50. The method, boiled down:
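Cells in RPMI 1640 with 10% FBS were pretreated for 1 h at 37 °C with compound (12-point threefold series from 25 μM, or 0.5 μM, in triplicate). They were then stimulated with TNFα added as a 5 ng/mL solution for 13 h. Survival was read by luminescence.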
For orientation: In ATP-based viability assays light output follows the ATP content of the culture.

Series [3] can be described thus: Study of oral pharmacokinetics in rats. Conditions: rat, in vivo, male SD rats, p.o.; for bioavailability: i.v. 1 mg/kg; for AUC(0-t): read-out: AUC0-8. On the procedure: Healthy male SD rats were used as experimental animals. The intragastric (p.o.) administration was performed, with a dosage of 5 mg/kg or 15 mg/kg. Preparation: the compound was dissolved in a formulation made of 1% tween 80, 1% HMPC, and 98% water. The mixture was ground and shaken until the compound was uniformly distributed with a small particle size, and then 1 equivalent of methanesulfonic acid was added. The intravenous administration was performed with a dosage of 1 mg/kg. Preparation: 5% DMSO, 10% EtOH, 10% sulotol, and 75% physiological saline was added to the compound, and mixed well. Samples were taken at 5 minutes, 15 minutes, 30 minutes, 1 hour, 2 hours, 4 hours, 6 hours, and 8 hours after administration, and then the samples were analyzed using liquid chromatography tandem mass spectrometry (LC-MS/MS).

Molecules are shown by their SMILES. pIC50: −log10 of the molar value. Where two headings read alike, the source gives them in different places.

For orientation: pIC50 means the negative decadic logarithm of the IC50, by convention in mol/L. What is called Cmax is the peak of the concentration-time curve. For orientation: Tmax means the time at which the peak concentration occurs. As usually defined, the half-life is how long it takes for the measured level to halve. A lower half-life goes with fast loss. The bioavailability is dose-corrected exposure relative to a reference, in per cent. Higher therefore signals much systemic uptake.

`CN1C(=O)C(NC(=O)c2nnc(Cc3ccccc3)[nH]2)Cn2cc(-c3ccnn3C)c3cccc1c32` (racemic) [T-16, (±)-5-benzyl-N-(1-methyl-7-(1-methyl-1H-pyrazol-5-yl)-2-oxy-1,2,3,4-tetrahydro-[1,4]diazepino [3,2,1-hi]indol-3-yl)-4H-1,2,4-triazole-3-carboxamide]: the pIC50 in series [1] is 7.32; in series [2], greater than 8.00.

Take `CN1C(=O)[C@@H](NC(=O)c2nnc(Cc3ccccc3)[nH]2)Cn2cc(-c3cn(C)nc3C(F)(F)F)c3cccc1c32` [T-118, (S)-5-benzyl-N-(1-methyl-7-(1-methyl-3-(trifluoromethyl)-1H-pyrazol-4-yl)-2-oxo-1,2,3,4-tetrahydro-[1,4]diazepine [3,2,1-hi]indol-3-yl)-4H-1,2,4-triazole-3-carboxamide]: the figures for the negative-log IC50 (pIC50) in series [1] and in series [2] were 7.60 and greater than 8.00, respectively.

Consider `CN1C(=O)[C@@H](NC(=O)c2nnc(Cc3ccccc3)[nH]2)Cc2cn(-c3ncccc3OC(F)F)c3cccc1c23` [T-112, (S)-5-benzyl-N-(6-(3-(difluoromethoxy)pyridin-2-yl)-1-methyl-2-oxo-2,3,4,6-tetrahydro-1H-aza [4,3,2-cd]indol-3-yl)-4H-1,2,4-triazole-3-carboxamide], for which, in series [3] (5 mg/kg), the concentration peaked (Cmax) at 494 ng/mL, the Tmax was found to be 0.75 h, the half-life is 1.99 h and the bioavailability was 18.3%. Moreover, the AUC(0-t) in series [3] (5 mg/kg) came to 1700 ng·h/mL. Further, in series [3] (15 mg/kg), the highest level (Cmax) was 3930 ng/mL, the time to peak (Tmax) is 1.5 h, the half-life is 1.91 h and the bioavailability was 57.1%. The AUC(0-t) in series [3] (15 mg/kg) is 15900 ng·h/mL. The compound also had a pIC50 in series [1] of 7.55. In addition, in series [2], the pIC50 is greater than 8.00.

Regarding `CN1C(=O)C(NC(=O)c2nnc(Cc3ccccc3)[nH]2)Cc2cn(-c3cnn(C)c3)c3cccc1c23` (racemic) [T-34, (±)-5-benzyl-N-(1-methyl-6-(1-methyl-1H-pyrazol-4-yl)-2-oxo-2,3,4,6-tetrahydro-1H-azacyclo [4,3,2-cd]indol-3-yl)-4H-1,2,4-triazole-3-carboxamide], the negative-log IC50 (pIC50) is 7.30 in series [1] and greater than 8.00 in series [2].

Take `CN1C(=O)[C@@H](NC(=O)c2nnc(Cc3ccccc3)[nH]2)Cc2cn(-c3ncccc3C(F)(F)F)c3cccc1c23` [T-96, (S)-5-benzyl-N-(1-methyl-2-oxo-6-(3-(trifluoromethyl)pyridin-2-yl)-2,3,4,6-tetrahydro-1H-azacyclo [4,3,2-cd]indol-3-yl)-4H-1,2,4-triazole-3-carboxamide]: in series [3] (5 mg/kg), the Cmax was 1270 ng/mL, the Tmax stood at 1 h, the half-life was 3.76 h and the bioavailability stood at 28.2%. The AUC(0-t) in series [3] (5 mg/kg) stood at 4900 ng·h/mL. The pIC50 in series [1] was 7.82. Also, in series [2], the pIC50 is greater than 8.00.
